Structures can show the parent of a compound that is named as a salt. Where two headings read alike, the source gives them in different places.
Key:
[1] = Toxicity to normal cells (SRB); assay type: cell-based, human; settings: human, Hs27 fibroblasts (normal cell line)
Procedure, shortened: (§1)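 Cells seeded at 3,000˜5,000 cells/100 μL, grown 24 h at 37° C (MDA-MB-231 under atmospheric conditions), then exposed to 10 μM˜0.1 nM compound. MDA-MB-231 cultured 120 h, read by MTS at 490 nm; fibroblasts cultured 72 h, TCA-fixed, SRB-stained, read at 540 nm. GI50 from growth relative to untreated and medium-only cells.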

[2] = Toxicity to normal cells (SRB); assay type: cell-based, mouse; settings: mouse, Balb/c3t3 fibroblasts (normal cell line), read-out: BalB/C (GI50)
Experimental: MDA-MB-231 breast cancer cell lines (ATCC #HTB-26) and BxPC-3 pancreas cancer cell lines (ATCC #CRL 1687), which have been reported to express XIAP, were obtained from ATCC (American type culture collection; Rockville, Md.). MDA-MB-231 cell lines were incubated in L-15 medium supplemented with 10% FBS and 1% penicillin/streptomycin (Gibco BRL) at a T-75 cm^2 growth flask. In addition, BxPC-3 cell lines were incubated in RPMI medium supplemented with 10% FBS and 1% penicillin/streptomycin. For experiments of toxicity to normal cells, fibroblasts Hs27 (ATCC #CRL 1634) and Balb/c3t3 (ATCC #CCL 163) were used. The various cell lines were transferred into 96-well plates at a density of 3,000˜5,000 cells/100 μL, and cultured for 24 hours under conditions of 37° C., 5% CO2, 95% air, and 100% relative humidity (MDA-MB-231 cells were cultured under atmospheric conditions). The cells were treated with 10 μM˜0.1 nM of test compounds, and MDA-MB-231, BxPC-3, and normal cell lines were cultured for 120, 96, and 72 hours, respectively.
Cell viabilities of MDA-MB-231 cell lines were measured at an absorbance of 490 nm using CellTiter 96™ AQueous One Solution Cell proliferation Assay (MTS, Promega), and cell viabilities of BxPC-3 and normal cell lines were measured by fixing cells with 10% TCA (trichloroacetic acid), staining with SRB (sulforhodamine B), and measuring at 540 nm. From the values, GI50 values in which test compounds reduce the growth of cancer cells by 50% were calculated. The growth rates of cancer cells were calculated from following Equation 1 or 2. [(Ti−Tz)/(C−Tz)]×100 (for Ti>=Tz) [Equation 1] [(Ti−Tz)/Tz]×100 (for Ti<Tz) [Equation 2] In Equations 1 and 2, Tz refers to a density of untreated cells, which is an absorbance in 0% cell growth groups. C refers to a density of cells cultured by adding only medium, and Ti refers to a density of cells treated with test compounds.
GI50 value is the concentration of a test compound when the value of Equation 1 is 50, which indicates the concentration of test compound required to inhibit the cancer cells by 50%. On each measurement, test compounds were compared with a control.
The activity value of each compound (GI50 value) was shown in Table 5, and an IAP antagonist was used as a control.
In the activity measurement on MDA-MB-231 breast cancer cell lines, the values were represented as “***” for 100 nM or less, “**” for over 100 nM to below 1,000 nM, and “*” for 1,000 nM or more. In the measurement on normal cell lines, Balb/C and Hs27, the values were represented as “+++” for 10,000 nM or more, “++” for over 5,000 nM to below 10,000 nM, and “+” for 5,000 nM or less.

[3] = test system: MDA-MB-231 breast cancer cell lines; experiment: Evaluation of inhibition on cell growth (MTS); assay type: cell-based; settings: Homo sapiens, MDA-MB-231, 120 hours
Procedure, shortened: as §1

| GI50 [3] [µM] | Structure (SMILES) | GI50 at 72 h [1] [µM] | GI50 at 72 h [2] [µM] |
| --- | --- | --- | --- |
| ≤ 0.1 | CN[C@@H](C)C(=O)N[C@H](C(=O)N1CCC[C@H]1C(=O)Nc1cc2c(NCc3ccc(F)cc3F)ncnc2cc1OC)C(C)(C)C [Example 35, (S)—N-(4-(2,4-difluorobenzylamino)-7-methoxyquinazolin-6-yl)-1-((S)-3,3-dimethyl-2-((S)-2-(methylamino)propanamido)butanoyl)pyrrolidine-2-carboxamide hydrochloride] | > 10 | > 10 |
| ≥ 1 | CN[C@@H](C)C(=O)N[C@H](C(=O)N1CCC[C@H]1C(=O)Nc1cc2c(Nc3ccc4c(c3)OCO4)ncnc2cc1OC)C(C)(C)C [Example 61, (S)—N-(4-(benzo[d][1,3]dioxol-5-ylamino)-7-methoxyquinazolin-6-yl)-1-((S)-3,3-dimethyl-2-((S)-2-(methylamino)propanamido)butanoyl)pyrrolidine-2-carboxamide] | > 10 | > 10 |
| ≤ 0.1 | CN[C@@H](C)C(=O)N[C@H](C(=O)N1CCC[C@H]1C(=O)Nc1cc2c(Nc3c(F)cccc3F)ncnc2cc1OC)C(C)(C)C [Example 59, (S)—N-(4-(2,6-difluorophenylamino)-7-methoxyquinazolin-6-yl)-1-((S)-3,3-dimethyl-2-((S)-2-(methylamino)propanamido)butanoyl)pyrrolidine-2-carboxamide] | > 10 | > 10 |
| ≤ 0.1 | CN[C@@H](C)C(=O)N[C@H](C(=O)N1CCC[C@H]1C(=O)Nc1cc2c(N(C)c3ccccc3)ncnc2cc1OC)C(C)(C)C [Example 31, (S)-1-((S)-3,3-dimethyl-2-((S)-2-(methylamino)propanamido)butanoyl)-N-(7-methoxy-4-(methyl(phenyl)amino)quinazolin-6-yl)pyrrolidine-2-carboxamide hydrochloride] | > 10 | > 10 |
| 0.1 to 1 | CN[C@@H](C)C(=O)N[C@H](C(=O)N1CCC[C@H]1C(=O)Nc1cc2c(N)ncnc2cc1OC)C(C)(C)C [Example 36, (S)—N-(4-amino-7-methoxyquinazolin-6-yl)-1-((S)-3,3-dimethyl-2-((S)-2-(methylamino)propanamido)butanoyl)pyrrolidine-2-carboxamide] | > 10 | > 10 |
| ≤ 0.1 | CN[C@@H](C)C(=O)N[C@H](C(=O)N1CCC[C@H]1C(=O)Nc1cc2c(Nc3ccc4[nH]ncc4c3)ncnc2cc1OC)C(C)(C)C [Example 54, (S)—N-(4-(1H-indazol-5-ylamino)-7-methoxyquinazolin-6-yl)-1-((S)-3,3-dimethyl-2-((S)-2-(methylamino)propanamido)butanoyl)pyrrolidine-2-carboxamide] | > 10 | > 10 |
| ≤ 0.1 | CN[C@@H](C)C(=O)N[C@H](C(=O)N1CCC[C@H]1C(=O)Nc1cc2c(N3CCCc4ccccc43)ncnc2cc1OC)C(C)(C)C [Example 50, (S)—N-(4-(3,4-dihydroquinoline-1(2H)-yl)-7-methoxyquinazolin-6-yl)-1-((S)-3,3-dimethyl-2-((S)-2-(methylamino)propanamido)butanoyl)pyrrolidine-2-carboxamide hydrochloride] | > 10 | > 10 |
| ≤ 0.1 | CN[C@@H](C)C(=O)N[C@H](C(=O)N1CCC[C@H]1C(=O)Nc1cc2c(Nc3ccc(F)c(Cl)c3)ncnc2cc1OC)C(C)(C)C [Example 41, (S)—N-(4-(3-chloro-4-fluorophenylamino)-7-methoxyquinazolin-6-yl)-1-((S)-3,3-dimethyl-2-((S)-2-(methylamino)propanamido)butanoyl)pyrrolidine-2-carboxamide hydrochloride] | > 10 | > 10 |
| ≤ 0.1 | CN[C@@H](C)C(=O)N[C@H](C(=O)N1CCC[C@H]1C(=O)Nc1cc2c(Nc3ccccc3Cl)ncnc2cc1OC)C(C)(C)C [Example 21, (S)—N-(4-(2-chlorophenylamino)-7-methoxyquinazolin-6-yl)-1-((S)-3,3-dimethyl-2-((S)-2-(methylamino)propanamido)butanoyl)pyrrolidine-2-carboxamide hydrochloride] | > 10 | > 10 |

The next lines start with the compound.

| Structure (SMILES) | GI50 [3] [µM] | GI50 at 72 h [1] [µM] | GI50 at 72 h [2] [µM] |
| --- | --- | --- | --- |
| CN[C@@H](C)C(=O)N[C@H](C(=O)N1CCC[C@H]1C(=O)Nc1cc2c(Nc3ccc4ccccc4c3)ncnc2cc1OC)C(C)(C)C [Example 32, (S)-1-((S)-3,3-dimethyl-2-((S)-2-(methylamino)propanamido)butanoyl)-N-(7-methoxy-4-(naphthalen-2-ylamino)quinazolin-6-yl)pyrrolidine-2-carboxamide] | ≤ 0.1 | > 10 | > 10 |
| CNC(=O)c1ccc(Nc2ncnc3cc(OC)c(NC(=O)[C@@H]4CCCN4C(=O)[C@@H](NC(=O)[C@H](C)NC)C(C)(C)C)cc23)cc1 [Example 74, (S)-1-((S)-3,3-dimethyl-2-((S)-2-(methylamino)propanamido)butanoyl)-N-(7-methoxy-4-(4-(methylcarbamoyl)phenylamino)quinazolin-6-yl)pyrrolidine-2-carboxamide] | ≤ 0.1 | > 10 | > 10 |
| CN[C@@H](C)C(=O)N[C@H](C(=O)N1CCC[C@H]1C(=O)Nc1cc2c(Nc3ccc(N4CCCC4)cc3)ncnc2cc1OC)C(C)(C)C [Example 65, (S)-1-((S)-3,3-dimethyl-2-((S)-2-(methylamino)propanamido)butanoyl)-N-(7-methoxy-4-(4-(pyrrolidin-1-yl)phenylamino)quinazolin-6-yl)pyrrolidine-2-carboxamide dihydrochloride] | ≤ 0.1 | > 10 | > 10 |
| CN[C@@H](C)C(=O)N[C@H](C(=O)N1CCC[C@H]1C(=O)Nc1cc2c(Nc3cccc4ncccc34)ncnc2cc1OC)C(C)(C)C [Example 63, (S)-1-((S)-3,3-dimethyl-2-((S)-2-(methylamino)propanamido)butanoyl)-N-(7-methoxy-4-(quinoline-5-ylamino)quinazolin-6-yl)pyrrolidine-2-carboxamide hydrochloride] | ≤ 0.1 | > 10 | > 10 |
| CN[C@@H](C)C(=O)N[C@H](C(=O)N1CCCC[C@H]1C(=O)Nc1cc2c(Nc3ccc(F)c(Cl)c3F)ncnc2cc1OC)C(C)(C)C [Example 25] | 0.1 to 1 | > 10 | > 10 |
| COc1cc2ncnc(Nc3ccc(F)c(Cl)c3F)c2cc1NC(=O)[C@@H]1CCCN1C(=O)[C@@H](NC(=O)[C@H](C)N)C(C)(C)C [Example 12, (S)-1-((S)-2-((S)-2-aminopropanamido)-3,3-dimethylbutanoyl)-N-(4-(3-chloro-2,4-difluorophenylamino)-7-methoxyquinazolin-6-yl)pyrrolidine-2-carboxamide hydrochloride] | ≥ 1 | > 10 | > 10 |
| CN[C@@H](C)C(=O)N[C@H](C(=O)N1CCC[C@H]1C(=O)Nc1cc2c(Nc3ccc4ncccc4c3)ncnc2cc1OC)C(C)(C)C [Example 53, (S)-1-((S)-3,3-dimethyl-2-((S)-2-(methylamino)propanamido)butanoyl)-N-(7-methoxy-4-(quinoline-6-ylamino)quinazolin-6-yl)pyrrolidine-2-carboxamide] | ≤ 0.1 | > 10 | > 10 |
| CCN(CC)c1ccc(Nc2ncnc3cc(OC)c(NC(=O)[C@@H]4CCCN4C(=O)[C@@H](NC(=O)[C@H](C)NC)C(C)(C)C)cc23)cc1 [Example 68, (S)-1-((S)-3,3-dimethyl-2-((S)-2-(methylamino)propanamido)butanoyl)-N-(7-methoxy-4-(4-diethylamino)phenylamino)quinazolin-6-yl)pyrrolidine-2-carboxamide dihydrochloride] | ≤ 0.1 | > 10 | > 10 |

From US8835458B2 (Hanmi Science Co., Ltd, priority 2010, dated 2014)
